Laboratory results published in patent US20250326753A1, “DUAL CXCR4-BTK INHIBITORS” (X4 Pharmaceuticals, Inc., priority 2022, published 2025).
Where two headings read alike, the source gives them in different places.

How the values were obtained:
PAK3 = target: T1, PAK3 (Homo sapiens, UniProt O75914); assay: PanQinase kinase panel: PAK3; format: biochemical; conditions: read-out: INHIBITORY EFFECT @ 1 uM: PAK3
T1 construct: purchased Reaction Biology Europe GmbH
Method: (§1) Screening procedures were performed in accordance with the company's on-line protocol [accessed on-line Mar.
(§2) For each kinase, the median value of the cpm of three wells was defined as “low control” (n=3). This value reflects unspecific binding of radioactivity to the plate in the absence of a protein kinase but in the presence of the substrate. Additionally, for each kinase the median value of the cpm of three other wells was taken as the “high control,” i.e. full activity in the absence of any inhibitor (n=3). The difference between high and low control of each enzyme was taken as 100% activity.
(§3) As part of the data evaluation the low control of each kinase was subtracted from the high control value as well as from their corresponding “compound values”. The residual activity (in %) for each compound well was calculated by using the following formula: Res. Activity (%)=100×[(signal of compound−low control)/(high control−low control)].

MEKK2 = target: T2, MEKK2 (Homo sapiens, UniProt Q9Y2U5); assay: PanQinase kinase panel: MEKK2; format: biochemical; conditions: read-out: INHIBITORY EFFECT @ 1 uM: MEKK2
T2 construct: purchased Reaction Biology Europe GmbH
T2 sequence (Q9Y2U5 1-619): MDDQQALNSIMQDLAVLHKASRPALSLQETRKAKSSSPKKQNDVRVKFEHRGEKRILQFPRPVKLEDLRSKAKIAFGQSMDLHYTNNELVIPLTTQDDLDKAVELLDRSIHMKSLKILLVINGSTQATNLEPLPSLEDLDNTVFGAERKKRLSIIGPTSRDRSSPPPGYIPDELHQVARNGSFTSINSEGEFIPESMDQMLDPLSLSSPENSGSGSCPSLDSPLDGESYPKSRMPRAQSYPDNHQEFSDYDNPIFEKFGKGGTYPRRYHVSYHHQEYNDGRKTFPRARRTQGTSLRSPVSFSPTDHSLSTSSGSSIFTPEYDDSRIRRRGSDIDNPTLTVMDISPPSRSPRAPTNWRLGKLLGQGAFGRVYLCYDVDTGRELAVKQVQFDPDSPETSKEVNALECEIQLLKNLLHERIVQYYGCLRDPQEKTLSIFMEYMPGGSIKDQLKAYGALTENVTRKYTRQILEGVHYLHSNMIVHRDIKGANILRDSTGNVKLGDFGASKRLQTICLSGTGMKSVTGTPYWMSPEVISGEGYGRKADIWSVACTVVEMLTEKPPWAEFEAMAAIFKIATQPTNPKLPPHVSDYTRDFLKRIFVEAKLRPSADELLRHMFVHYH
Method: as §1, §2, §3

CSK = target: T3, CSK (Homo sapiens, UniProt P41240); assay: PanQinase kinase panel: CSK; format: biochemical; conditions: read-out: INHIBITORY EFFECT @ 1 uM: CSK
T3 construct: purchased Reaction Biology Europe GmbH
Method: as §1, §2, §3

BLK = target: T4, BLK (Homo sapiens, UniProt P51451); assay: PanQinase kinase panel: BLK; format: biochemical; conditions: read-out: INHIBITORY EFFECT @ 1 uM: BLK
T4 construct: purchased Reaction Biology Europe GmbH
Method: as §1, §2
(§4) As part of the data evaluation the low control of each kinase was subtracted from the high control value as well as from their corresponding “compound values”.

PDGFRbeta = target: T5, PDGFRbeta (Homo sapiens, UniProt P09619); assay: PanQinase kinase panel: PDGFRbeta; format: biochemical; conditions: read-out: INHIBITORY EFFECT @ 1 uM: PDGFRbeta
T5 construct: purchased Reaction Biology Europe GmbH
T5 sequence (P09619 33-1106): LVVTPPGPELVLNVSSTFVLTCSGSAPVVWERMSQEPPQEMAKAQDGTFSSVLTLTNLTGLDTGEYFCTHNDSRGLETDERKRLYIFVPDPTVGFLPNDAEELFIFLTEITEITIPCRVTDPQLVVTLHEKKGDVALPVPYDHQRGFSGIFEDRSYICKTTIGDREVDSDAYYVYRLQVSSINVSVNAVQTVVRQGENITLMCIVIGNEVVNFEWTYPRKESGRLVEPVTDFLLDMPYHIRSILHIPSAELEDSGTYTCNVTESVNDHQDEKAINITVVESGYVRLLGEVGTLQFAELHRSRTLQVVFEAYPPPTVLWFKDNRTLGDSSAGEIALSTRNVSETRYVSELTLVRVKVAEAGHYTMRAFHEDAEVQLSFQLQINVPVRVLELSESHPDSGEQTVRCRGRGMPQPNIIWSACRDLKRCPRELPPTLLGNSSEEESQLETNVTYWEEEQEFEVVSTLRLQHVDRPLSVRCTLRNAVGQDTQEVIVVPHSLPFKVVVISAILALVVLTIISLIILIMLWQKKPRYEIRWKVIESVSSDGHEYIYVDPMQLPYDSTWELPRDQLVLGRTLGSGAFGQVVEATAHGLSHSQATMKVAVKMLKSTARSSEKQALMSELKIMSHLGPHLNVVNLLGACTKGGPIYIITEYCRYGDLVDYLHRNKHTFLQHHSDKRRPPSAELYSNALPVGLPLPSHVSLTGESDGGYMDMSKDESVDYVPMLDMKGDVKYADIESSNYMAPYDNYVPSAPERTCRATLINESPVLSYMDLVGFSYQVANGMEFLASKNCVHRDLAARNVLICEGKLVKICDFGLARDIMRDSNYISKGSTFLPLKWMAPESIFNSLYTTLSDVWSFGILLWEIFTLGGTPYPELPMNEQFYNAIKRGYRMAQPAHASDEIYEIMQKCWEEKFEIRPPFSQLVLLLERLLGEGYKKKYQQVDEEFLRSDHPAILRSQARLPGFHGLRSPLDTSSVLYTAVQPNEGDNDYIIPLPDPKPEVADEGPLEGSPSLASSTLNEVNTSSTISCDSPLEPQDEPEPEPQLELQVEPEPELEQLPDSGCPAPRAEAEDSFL
Method: as §1, §2, §3

ACK1 = target: T6, ACK1 (Homo sapiens, UniProt Q07912); assay: PanQinase kinase panel: ACK1; format: biochemical
T6 construct: purchased Reaction Biology Europe GmbH
T6 sequence (Q07912 whole entry): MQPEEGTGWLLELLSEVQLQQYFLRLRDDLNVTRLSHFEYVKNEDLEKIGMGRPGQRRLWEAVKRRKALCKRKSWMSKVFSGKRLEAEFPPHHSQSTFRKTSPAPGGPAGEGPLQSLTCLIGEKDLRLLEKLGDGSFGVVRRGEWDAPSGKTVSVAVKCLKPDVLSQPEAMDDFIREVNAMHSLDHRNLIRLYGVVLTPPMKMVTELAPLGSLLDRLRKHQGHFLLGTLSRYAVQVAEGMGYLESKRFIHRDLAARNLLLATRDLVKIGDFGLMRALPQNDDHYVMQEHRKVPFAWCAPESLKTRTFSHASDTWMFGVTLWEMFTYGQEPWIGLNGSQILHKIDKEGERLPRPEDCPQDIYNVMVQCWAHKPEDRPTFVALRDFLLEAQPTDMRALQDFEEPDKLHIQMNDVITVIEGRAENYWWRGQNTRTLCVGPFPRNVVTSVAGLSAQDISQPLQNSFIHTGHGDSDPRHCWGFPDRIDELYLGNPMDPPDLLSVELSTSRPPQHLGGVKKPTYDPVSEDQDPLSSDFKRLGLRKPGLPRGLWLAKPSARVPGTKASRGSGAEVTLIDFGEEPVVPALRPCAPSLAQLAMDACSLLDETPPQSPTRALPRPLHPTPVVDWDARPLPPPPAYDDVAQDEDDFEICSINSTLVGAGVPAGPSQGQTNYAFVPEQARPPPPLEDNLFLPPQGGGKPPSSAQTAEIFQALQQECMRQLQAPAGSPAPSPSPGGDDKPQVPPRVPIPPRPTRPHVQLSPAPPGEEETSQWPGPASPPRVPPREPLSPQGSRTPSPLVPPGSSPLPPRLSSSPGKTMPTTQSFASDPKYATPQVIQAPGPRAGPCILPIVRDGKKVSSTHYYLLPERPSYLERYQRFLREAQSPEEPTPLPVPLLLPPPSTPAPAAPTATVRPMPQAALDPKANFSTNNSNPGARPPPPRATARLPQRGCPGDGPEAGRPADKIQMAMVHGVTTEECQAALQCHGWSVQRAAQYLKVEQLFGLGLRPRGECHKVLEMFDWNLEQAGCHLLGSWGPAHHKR
Method: as §1, §2, §3

RIPK2 = target: T7, RIPK2 (Homo sapiens, UniProt O43353); assay: PanQinase kinase panel: RIPK2; format: biochemical; conditions: read-out: INHIBITORY EFFECT @ 1 uM: RIPK2
T7 construct: purchased Reaction Biology Europe GmbH
Method: as §1, §2, §3

U-87 MG = assay: Glioblastoma multiforme cell proliferation assay (CellTiter Glo), U-87 MG; format: cell-based; conditions: Homo sapiens; for Emax: read-out: GBM-U87MG Cell Proliferation Emax %
Method: Inhibition of glioblastoma multiforme cell proliferation by compounds of the present invention was evaluated in U-87 MG (ATCC; Cat. No. HTB-14; Lot. No. 5018014) and T98G (ATCC; Cat. No. CRL-1690; Lot. No. 58267513) cell lines. These are adherent cell lines isolated from glioblastoma multiforme/malignant glioma, which express both CXCR4 and BTK (see Zhou et al. 2002 and Yue et al. 2017).
Cell viability was analyzed with the CellTiter Glo Cell assay kit ([…], Cat. No. G7573, Lot. No. 0000474103), according to the manufacturer's instruction.
U-87 MG and T98G cells were seeded onto 384-well opaque-walled clear bottom plates (Corning, Cat. No. 3765, Lot. No. 34319047) in EMEM (Invitrogen, Cat. No. 11095-080; Lot. No. 2276656) supplemented with 10% FBS (Invitrogen, Cat. No. 10099-141C, Lot. No. 2145169CP), at a seeding density of 1000 or 1200 cells per well, respectively, and then incubated in 5% CO2 at 37° C. overnight.
Compounds were prepared as stock solutions of 30 mM in DMSO (Sigma, Cat. No. 276855-1L. Lot. No. SHBL5610). Compounds were added to the cells, with 10 dose points in duplicates, in 3-fold dilution from a top concentration of 30 μM (final DMSO concentration […]), and incubated in 5% CO2 at 37° C. for 96 hr.
The 384-well plates were equilibrated at room temperature for approximately 30 min. 25 μl of CellTiter-Glo® Reagent was added to each well and mixed for 10 min on an orbital shaker to induce cell lysis. The 384-well plates were incubated at room temperature for 10 min to stabilize luminescent signal. Luminescence was detected on a PerkinElmer EnVision Multimode Plate Reader (measurement time 0.1s) as relative luminescence units (RLU).

MAP3K11 = target: T8, MAP3K11 (Homo sapiens, UniProt Q16584); assay: PanQinase kinase panel: MAP3K11; format: biochemical
T8 construct: purchased Reaction Biology Europe GmbH
Method: as §1, §2, §4

SIK2 = target: T9, SIK2 (Homo sapiens, UniProt Q9H0K1); assay: PanQinase kinase panel: SIK2; format: biochemical
T9 construct: purchased Reaction Biology Europe GmbH
T9 sequence (Q9H0K1 whole entry): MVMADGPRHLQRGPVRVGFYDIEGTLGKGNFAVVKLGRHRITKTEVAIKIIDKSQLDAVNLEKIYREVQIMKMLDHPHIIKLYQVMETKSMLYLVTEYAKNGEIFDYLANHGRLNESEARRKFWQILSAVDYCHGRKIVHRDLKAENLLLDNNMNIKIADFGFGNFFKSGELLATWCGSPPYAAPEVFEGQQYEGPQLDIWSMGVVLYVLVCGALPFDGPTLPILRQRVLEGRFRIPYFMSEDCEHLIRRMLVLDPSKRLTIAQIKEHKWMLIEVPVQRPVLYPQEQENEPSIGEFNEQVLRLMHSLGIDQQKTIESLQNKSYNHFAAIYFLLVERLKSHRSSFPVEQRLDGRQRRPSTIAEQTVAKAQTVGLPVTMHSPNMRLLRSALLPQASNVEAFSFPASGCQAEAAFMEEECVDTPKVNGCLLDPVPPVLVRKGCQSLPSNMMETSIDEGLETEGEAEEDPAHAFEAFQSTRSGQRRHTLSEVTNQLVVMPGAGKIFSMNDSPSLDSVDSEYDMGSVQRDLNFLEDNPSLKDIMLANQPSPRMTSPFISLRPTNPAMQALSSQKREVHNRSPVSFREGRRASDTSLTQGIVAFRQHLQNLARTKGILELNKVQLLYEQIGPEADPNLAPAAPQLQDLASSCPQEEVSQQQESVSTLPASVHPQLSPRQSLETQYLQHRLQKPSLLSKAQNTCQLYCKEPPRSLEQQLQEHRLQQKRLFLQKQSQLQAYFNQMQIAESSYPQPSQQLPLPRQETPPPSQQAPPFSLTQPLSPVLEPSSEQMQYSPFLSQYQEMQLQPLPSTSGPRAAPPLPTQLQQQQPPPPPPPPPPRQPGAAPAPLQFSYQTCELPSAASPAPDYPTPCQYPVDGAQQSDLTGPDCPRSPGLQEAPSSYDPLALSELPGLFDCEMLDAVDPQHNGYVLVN
Method: as §1, §2, §3

ABL1 = target: T10, ABL1 (Homo sapiens, UniProt P00519); assay: PanQinase kinase panel: ABL1; format: biochemical
T10 construct: purchased Reaction Biology Europe GmbH
T10 sequence (P00519 whole entry): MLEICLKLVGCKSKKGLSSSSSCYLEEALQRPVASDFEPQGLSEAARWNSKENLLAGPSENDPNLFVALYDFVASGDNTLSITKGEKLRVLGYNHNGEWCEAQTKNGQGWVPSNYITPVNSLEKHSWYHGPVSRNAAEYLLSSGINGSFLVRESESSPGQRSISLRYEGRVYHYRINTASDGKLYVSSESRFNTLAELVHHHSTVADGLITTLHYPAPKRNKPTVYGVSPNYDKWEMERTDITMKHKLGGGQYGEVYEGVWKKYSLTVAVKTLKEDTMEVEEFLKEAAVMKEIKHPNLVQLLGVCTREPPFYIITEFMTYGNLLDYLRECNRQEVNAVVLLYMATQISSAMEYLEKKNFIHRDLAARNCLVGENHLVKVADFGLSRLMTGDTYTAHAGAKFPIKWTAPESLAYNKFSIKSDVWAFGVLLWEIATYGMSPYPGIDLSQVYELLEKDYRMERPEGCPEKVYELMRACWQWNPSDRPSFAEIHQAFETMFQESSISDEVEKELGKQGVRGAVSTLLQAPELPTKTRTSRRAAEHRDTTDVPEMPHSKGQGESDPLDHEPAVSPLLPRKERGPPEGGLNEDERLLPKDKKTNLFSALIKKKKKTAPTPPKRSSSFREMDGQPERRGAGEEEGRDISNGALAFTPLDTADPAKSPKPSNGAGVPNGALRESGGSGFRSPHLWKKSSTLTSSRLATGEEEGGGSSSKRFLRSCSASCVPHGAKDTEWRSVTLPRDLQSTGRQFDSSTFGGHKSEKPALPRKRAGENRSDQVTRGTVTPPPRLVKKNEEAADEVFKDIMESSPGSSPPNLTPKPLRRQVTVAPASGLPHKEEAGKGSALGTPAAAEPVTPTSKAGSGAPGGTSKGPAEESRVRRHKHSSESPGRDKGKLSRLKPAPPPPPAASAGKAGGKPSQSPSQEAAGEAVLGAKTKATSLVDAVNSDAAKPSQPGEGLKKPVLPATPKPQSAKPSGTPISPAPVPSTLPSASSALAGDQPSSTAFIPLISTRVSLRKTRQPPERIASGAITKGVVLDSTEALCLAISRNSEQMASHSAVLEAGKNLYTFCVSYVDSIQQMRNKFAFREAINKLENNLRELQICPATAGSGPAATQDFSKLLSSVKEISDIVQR
Method: as §1, §2, §3

VEGFR2 = target: T11, VEGFR2 (Homo sapiens, UniProt P35968); assay: PanQinase kinase panel: VEGFR2; format: biochemical; conditions: read-out: INHIBITORY EFFECT @ 1 uM: VEGFR2
T11 construct: purchased Reaction Biology Europe GmbH
Method: as §1, §2, §3

[1] = read-out: INHIBITORY EFFECT @ 1 uM: ACK1
[2] = read-out: INHIBITORY EFFECT @ 1 uM: MAP3K11
[3] = read-out: INHIBITORY EFFECT @ 1 uM: SIK2
[4] = read-out: INHIBITORY EFFECT @ 1 uM: ABL1
[5] = Table 6A, cell viability, 96 hr, read-out: U-87 MG IC50

T1 sequence (O75914 whole entry): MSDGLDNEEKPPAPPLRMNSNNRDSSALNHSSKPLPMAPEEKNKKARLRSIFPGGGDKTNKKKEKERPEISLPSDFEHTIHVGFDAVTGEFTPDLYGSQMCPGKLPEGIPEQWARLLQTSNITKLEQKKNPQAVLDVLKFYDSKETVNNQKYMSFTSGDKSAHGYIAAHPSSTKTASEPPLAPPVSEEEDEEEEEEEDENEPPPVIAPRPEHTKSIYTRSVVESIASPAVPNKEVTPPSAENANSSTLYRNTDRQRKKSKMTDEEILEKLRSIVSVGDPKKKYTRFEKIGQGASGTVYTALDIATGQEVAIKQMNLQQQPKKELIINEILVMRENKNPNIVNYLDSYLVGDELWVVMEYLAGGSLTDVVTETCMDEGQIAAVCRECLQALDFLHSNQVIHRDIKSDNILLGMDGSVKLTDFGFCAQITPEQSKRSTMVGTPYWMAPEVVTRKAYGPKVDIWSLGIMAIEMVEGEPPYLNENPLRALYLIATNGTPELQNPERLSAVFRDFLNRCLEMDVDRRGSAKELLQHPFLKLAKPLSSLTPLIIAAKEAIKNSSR

Structure (SMILES)	IC50 (U-87 MG; Table 6B, read-out: GBM-U87MG Cell Proliferation IC50)	IC50 (U-87 MG; [5])	inhibition at 1 µM (PAK3)	inhibition at 1 µM (MEKK2)	inhibition at 1 µM (CSK)	inhibition at 1 µM (BLK)	inhibition at 1 µM (PDGFRbeta)	inhibition at 1 µM (ACK1; [1])	inhibition at 1 µM (RIPK2)	Emax (U-87 MG; Table 6B)	IC50 (U-87 MG; read-out: GBM-U87MG Cell Proliferation IC50 uM)	inhibition at 1 µM (MAP3K11; at 1 μM, read-out: inhibition of MAP3K11)	inhibition at 1 µM (MAP3K11; [2])	inhibition at 1 µM (SIK2; at 1 μM, read-out: inhibition of SIK2)	inhibition at 1 µM (SIK2; [3])	inhibition at 1 µM (ABL1; at 1 μM, read-out: inhibition of ABL1)	inhibition at 1 µM (ABL1; [4])	inhibition at 1 µM (ACK1; 1 μM, read-out: inhibitor effect on ACK1)	inhibition at 1 µM (VEGFR2)
O=C(c1ccc(Oc2ccccc2)cc1Cl)c1c[nH]c2ncnc(N[C@@H]3CC[C@@H](CO)OC3)c12 [ARQ-531, (2-chloro-4-phenoxyphenyl) (4-(((3R,6S)-6-(hydroxymethyl)tetrahydro-2H-pyran-3-yl)amino)-7H-pyrrolo[2,3-d]pyrimidin-5-yl) methanone]			90 to 100%	70 to 89%	90 to 100%	90 to 100%	< 50%	90 to 100%	90 to 100%										
Cc1cccnc1[C@H]1CCC[C@@H](c2ncccc2C)N1CCN1CCN(C(=O)c2ccc(-c3cc4c(-c5cccc(NC(=O)c6ccccc6)c5C)ncnc4[nH]3)cc2)CC1 [Compound I-10, N-(3-(6-(4-(4-(2-((2R,6S)-2,6-bis(3-methylpyridin-2-yl)piperidin-1-yl)ethyl)piperazine-1-carbonyl)phenyl)-7H-pyrrolo[2,3-d]pyrimidin-4-yl)-2-methylphenyl)benzamide]			< 50%	< 50%	< 50%	< 50%	< 50%	90 to 100%	< 50%	101%	0.76 µM	50 to 89%	50 to 69%	50 to 89%	50 to 69%	50 to 89%	70 to 89%	≥ 90%	< 50%
Cc1cccnc1[C@H]1CCC[C@@H](c2ncccc2C)N1CCCCNC(=O)[C@@H]1CC[C@@H](Nc2ncnc3[nH]cc(C(=O)c4ccc(Oc5ccccc5)cc4Cl)c23)CO1 [Compound I-16]		1.3 µM																	
COc1ccc(F)cc1C(=O)NCc1ccc(-c2nn([C@@H](C)C(F)(F)F)c(N)c2C(N)=O)cc1 [LOXO-305, pirtobrutinib]			< 50%	< 50%	70 to 89%	< 50%	< 50%	< 50%	< 50%				< 50%		< 50%		< 50%		< 50%
C=CC(=O)N1CCC([C@@H]2CCNc3c(C(N)=O)c(-c4ccc(Oc5ccccc5)cc4)nn32)CC1 [Zanubrutinib, (7S)-2-(4-phenoxyphenyl)-7-(1-prop-2-enoylpiperidin-4-yl)-4,5,6,7-tetrahydropyrazolo[1,5-a]pyrimidine-3-carboxamide]			< 50%	< 50%			< 50%	< 50%	50 to 69%				< 50%		< 50%		< 50%		< 50%

Now from value to compound, other results behind:

IC50 (U-87 MG; Table 6B, read-out: GBM-U87MG Cell Proliferation IC50)	IC50 (U-87 MG; [5])	Structure (SMILES)	inhibition at 1 µM (PAK3)	inhibition at 1 µM (MEKK2)	inhibition at 1 µM (CSK)	inhibition at 1 µM (BLK)	inhibition at 1 µM (PDGFRbeta)	inhibition at 1 µM (ACK1; [1])	inhibition at 1 µM (RIPK2)	Emax (U-87 MG; Table 6B)	IC50 (U-87 MG; read-out: GBM-U87MG Cell Proliferation IC50 uM)	inhibition at 1 µM (MAP3K11; at 1 μM, read-out: inhibition of MAP3K11)	inhibition at 1 µM (MAP3K11; [2])	inhibition at 1 µM (SIK2; at 1 μM, read-out: inhibition of SIK2)	inhibition at 1 µM (SIK2; [3])	inhibition at 1 µM (ABL1; at 1 μM, read-out: inhibition of ABL1)	inhibition at 1 µM (ABL1; [4])	inhibition at 1 µM (ACK1; 1 μM, read-out: inhibitor effect on ACK1)	inhibition at 1 µM (VEGFR2)
0.66 µM		Cc1cc(-c2ccnc(Nc3cnn(CCN4[C@@H](c5ncccc5C)CCC[C@H]4c4ncccc4C)c3)n2)ccc1CNC(=O)N1CC(OC(C)C)C1 [Compound I-11]								96%									
	1.2 µM	Cc1cccnc1[C@H]1CCC[C@@H](c2ncccc2C)N1CCCCNC(=O)OC[C@@H]1CC[C@@H](Nc2ncnc3[nH]cc(C(=O)c4ccc(Oc5ccccc5)cc4Cl)c23)CO1 [Compound I-18]																	
